Legend:
[1] = molecular target: T1, ELIC (Erwinia chrysanthemi ligand-gated ion channel) (Dickeya chrysanthemi, UniProt P0C7B7); assay: whole-cell patch clamp concentration-response in HEK293 cells; type: cell-based
T1 sequence (P0C7B7 1-321): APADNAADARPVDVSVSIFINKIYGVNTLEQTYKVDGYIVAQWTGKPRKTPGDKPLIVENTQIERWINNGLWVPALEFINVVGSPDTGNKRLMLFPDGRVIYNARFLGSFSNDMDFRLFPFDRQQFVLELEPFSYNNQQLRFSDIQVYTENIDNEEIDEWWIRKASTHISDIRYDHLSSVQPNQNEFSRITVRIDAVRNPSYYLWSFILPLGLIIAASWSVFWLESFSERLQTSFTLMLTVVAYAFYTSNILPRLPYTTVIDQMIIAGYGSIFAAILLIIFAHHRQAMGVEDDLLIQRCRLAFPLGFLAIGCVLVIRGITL

[2] = molecular target: T1, ELIC (Erwinia chrysanthemi ligand-gated ion channel); assay: macroscopic patch-clamp currents; type: cell-based

EC50 [1] [µM]	SMILES	macroscopic patch-clamp currents (data not shown) [2]
500 ± 100	CCCN [propylamine]	–
–	NCCS [cysteamine]	in our macroscopic records, the rebound current (see below) was more prominent when responses were elicited by cysteamine

Source: paper PMC4278187 (The Journal of General Physiology, 2015)
